In one assay the target is h5-HT2A receptor (Homo sapiens, UniProt P28223). The assay is described as follows: Activation potency, FLIPR calcium assay in NIH-3T3 cells. In kind it is cell-based. On the set-up: expressed in transfected cells. As for the experimental part:
Mouse embryonic fibroblasts (NIH-3T3) were transfected with the human 5-HT2A receptors, seed into 96-well plates coated with poly-D-lysine at a concentration of 70,000 cell per 0.1 mL and then incubated for 1 h at 37 °C in HEPES-Hank’s Balanced Salt Solution (HBSS) buffer (Gibco). Next, the plates were exposed to 100 μL/well of dye solution for 1 h at 37 °C inside the FLIPR (fluorescence imagining plate reader [FLIPR] calcium 5 assay kit; Molecular Devices, Sunnyvale, CA, USA). Then, the plates were exposed to the 25 μL/well of test drugs dissolved in HEPES–HBSS buffer and 250 mM probencid during online mode. The corresponding concentration vs. response curves were fitted using nonlinear regression and the EC50 values were calculated. The efficacy (maximal activity) was calculated relative to 5-HT activity, which was defined as 100%.

In assay [1] the target is T1, human serotonin (hSERT) uptake transporter (Homo sapiens, UniProt P31645).
T1 construct: expressed in transfected cells; host or cells: HEK293
T1 sequence (P31645 whole entry): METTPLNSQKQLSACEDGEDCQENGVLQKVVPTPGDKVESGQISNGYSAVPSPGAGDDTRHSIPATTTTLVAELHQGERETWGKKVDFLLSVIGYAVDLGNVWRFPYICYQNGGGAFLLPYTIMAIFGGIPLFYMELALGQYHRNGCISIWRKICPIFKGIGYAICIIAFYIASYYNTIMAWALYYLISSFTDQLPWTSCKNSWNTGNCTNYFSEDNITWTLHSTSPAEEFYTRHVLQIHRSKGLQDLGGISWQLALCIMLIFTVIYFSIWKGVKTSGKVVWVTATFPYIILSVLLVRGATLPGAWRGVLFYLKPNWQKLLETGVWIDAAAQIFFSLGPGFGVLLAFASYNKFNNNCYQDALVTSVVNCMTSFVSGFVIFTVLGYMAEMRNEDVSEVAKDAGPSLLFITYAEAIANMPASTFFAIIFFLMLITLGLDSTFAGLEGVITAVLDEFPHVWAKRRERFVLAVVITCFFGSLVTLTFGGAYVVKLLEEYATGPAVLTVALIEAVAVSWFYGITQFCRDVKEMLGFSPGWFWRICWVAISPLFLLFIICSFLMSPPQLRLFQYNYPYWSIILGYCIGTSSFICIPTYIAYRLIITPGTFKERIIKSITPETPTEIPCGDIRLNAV
The assay can be described thus: Monoamine uptake inhibition, serotonin uptake in transfected HEK293 cells. In kind it is cell-based. The protocol:
(§1) The monoamine uptake transporter inhibition was examined in accordance with previously described methods by for each substance of interest.
(§2) Human embryonic kidney 293 (HEK293) cells (Invitrogen, Zug, Switzerland) stably transfected with the human norepinephrine (hNET), dopamine (hDAT), or serotonin (hSERT) uptake transporters were briefly cultured in Dulbecco’s modified Eagle’s medium (DMEM; Gibco, Life Technologies, Zug, Switzerland) containing 10% fetal bovine serum and 250 μg/mL geneticin (Gibco, Life Technologies, Zug, Switzerland). Next, the cells were detached at a confluency of 70−90% and resuspended in Krebs–Ringer Bicarbonate Buffer (Sigma-Aldrich, Buchs, Switzerland) at a concentration of 3 × 10^6 cells per ml. The uptake buffer was additionally supplemented with 0.2 mg/mL of ascorbic acid (Sigma–Aldrich, Buchs, Switzerland) for the [^3H]-DA uptake experiments.
(§3) In summary, using round bottom 96-well plates, 100 μL of cell suspension was incubated in 25 μL of buffer containing test substances, vehicle control (0.7% dimethyl sulfoxide, DMSO), or 10 μM of the respective monoamine uptake inhibitor, mainly fluoxetine (SERT), nisoxetine (NET), or mazindol (DAT) for 10 min at room temperature while on a rotary shaker at 450 rpm (Thermomixer Comfort, Eppendorf, Hamburg, Germany). Thereafter, the monoamine uptake transporter was initiated by the addition of 50 μL of each respective radiolabelled neurotransmitter ([^3H]-5-HT, [^3H]-DA or [^3H]-NE) dissolved in the uptake buffer to a final concentration of 5 nM for an additional 10 min. Then, 100 μL of cell suspension mixture was transferred to microcentrifuge tubes containing 50 μL of 3 M potassium hydroxide (KOH, Sigma–Aldrich, Buchs, Switzerland) and 200 μL silicon oil (1:1 mixture of silicon oil type AR20 and AR200; Sigma–Aldrich, Buchs, Switzerland). Immediately after, the tubes were centrifugated (3 min, 13200 rpm) to terminate the uptake reaction by allowing the cells to move through the silicon oil into the KOH, which then lysed the cells. Quickly after, the tubes were immediately frozen with liquid nitrogen. Afterwards, the frozen cell pellet was cut off into 6 mL scintillation vials (Perkin–Elmer, Schwerzenbach, Switzerland) filled with 500 μL of lysis buffer (5 mM EDTA, 0.05 M TRIS-HCl, 50 mM NaCl and 1% NP-40 in water). Directly after the vials were shaken for 1 h at 700 rpm and then each vial was filled with 3 mL of scintillation fluid (Ultimagold, Perkin–Elmer, Schwerzenbach, Switzerland). The uptake of the monoamines was measured using a liquid scintillation counter (Packard Tri-Carb Liquid Scintillation Counter 1900 TR).
(§4) The data were analysed using Prism software (version 8, GraphPad, San Diego, CA, USA) and was fitted by a nonlinear regression to variable-slope sigmoidal dose-response curve. The IC50 values were extracted in order to determine each drug’s inhibition potency at the various monoamine transporters.

Assay [2] addresses T2, human norepinephrine (hNET) uptake transporter (Homo sapiens, UniProt P23975).
T2 construct: expressed in transfected cells; host or cells: HEK293
The assay is described as follows: Monoamine uptake inhibition, norepinephrine uptake in transfected HEK293 cells. Conditions: for fold higher inhibition potency at the NET: compared to α-PPP. In kind it is cell-based. As for the experimental part: as §1, §2, §3, §4

The next assay deals with T3, h5-HT1A receptor (Homo sapiens, UniProt P08908).
T3 construct: expressed in transfected cells; host or cells: HEK293 cell preparations
T3 sequence (P08908 1-422): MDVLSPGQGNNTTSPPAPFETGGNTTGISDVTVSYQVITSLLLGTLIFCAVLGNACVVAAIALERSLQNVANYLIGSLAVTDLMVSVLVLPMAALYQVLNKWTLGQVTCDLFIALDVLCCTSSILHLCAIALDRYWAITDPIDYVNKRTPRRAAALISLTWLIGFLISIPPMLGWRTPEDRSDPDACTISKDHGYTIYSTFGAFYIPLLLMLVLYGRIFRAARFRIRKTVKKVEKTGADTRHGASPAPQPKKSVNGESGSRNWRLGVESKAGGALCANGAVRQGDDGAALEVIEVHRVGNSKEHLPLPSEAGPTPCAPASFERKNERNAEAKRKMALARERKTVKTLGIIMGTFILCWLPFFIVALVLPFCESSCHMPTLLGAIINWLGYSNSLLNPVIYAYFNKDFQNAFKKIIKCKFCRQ
The assay can be described thus: Radioligand binding, [3H]-8-OH-DPAT. The protocol:
The radioligand binding assays for the human 5-HT1A, 5-HT2A, and 5-HT2C receptors were examined as previously described by. In summary, the human embryonic kidney 293 (HEK293) cell preparations were stably transfected with the human 5-HT1A, 5-HT2A or 5-HT2C receptors and then incubated with their respective radiolabelled ligands at a concentration equal to the dissociation constant, Kd. The following radioligands were used for the 5-HT1A, 5-HT2A, and 5-HT2C receptors, respectively; 0.90 nM [^3H]8-hydroxy-2-(dipropylamino) tetralin (8-OH-DPAT), 0.40 nM [^3H]ketanserin, and 1.4 nM [^3H]mesulgerine. The radioligand displacement for each examined drug was determined. Specific binding of the radioligand to the target was calculated by subtracting the nonspecific binding (in the presence of the receptor’s competitor in excess) from the total observed binding. The following radioligand competitors were used for the 5-HT1A, 5-HT2A, and 5-HT2C receptors, respectively; 10 μM pindolol (5-HT1A receptor), 10 μM spiperone (5-HT2A receptor), and 10 μM mianserin (5-HT2C receptor).

Molecules are shown by their SMILES.

T2 sequence (P23975 whole entry): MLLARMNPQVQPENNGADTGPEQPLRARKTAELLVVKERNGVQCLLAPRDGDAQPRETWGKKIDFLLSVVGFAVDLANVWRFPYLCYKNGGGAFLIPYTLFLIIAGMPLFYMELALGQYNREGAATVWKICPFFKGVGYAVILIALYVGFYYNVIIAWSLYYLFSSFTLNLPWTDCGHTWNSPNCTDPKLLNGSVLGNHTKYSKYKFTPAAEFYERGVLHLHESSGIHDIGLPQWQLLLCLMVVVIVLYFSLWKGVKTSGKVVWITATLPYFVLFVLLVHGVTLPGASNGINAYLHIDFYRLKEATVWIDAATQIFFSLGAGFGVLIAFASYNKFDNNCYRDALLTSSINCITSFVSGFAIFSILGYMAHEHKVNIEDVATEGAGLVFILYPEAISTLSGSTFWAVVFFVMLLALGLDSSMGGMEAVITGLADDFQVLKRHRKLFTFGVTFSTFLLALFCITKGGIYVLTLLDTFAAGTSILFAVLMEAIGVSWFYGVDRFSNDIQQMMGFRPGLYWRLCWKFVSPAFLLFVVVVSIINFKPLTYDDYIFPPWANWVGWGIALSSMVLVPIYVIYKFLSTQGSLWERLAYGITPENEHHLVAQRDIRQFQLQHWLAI
Sequence of h5-HT2A receptor (P28223 whole entry): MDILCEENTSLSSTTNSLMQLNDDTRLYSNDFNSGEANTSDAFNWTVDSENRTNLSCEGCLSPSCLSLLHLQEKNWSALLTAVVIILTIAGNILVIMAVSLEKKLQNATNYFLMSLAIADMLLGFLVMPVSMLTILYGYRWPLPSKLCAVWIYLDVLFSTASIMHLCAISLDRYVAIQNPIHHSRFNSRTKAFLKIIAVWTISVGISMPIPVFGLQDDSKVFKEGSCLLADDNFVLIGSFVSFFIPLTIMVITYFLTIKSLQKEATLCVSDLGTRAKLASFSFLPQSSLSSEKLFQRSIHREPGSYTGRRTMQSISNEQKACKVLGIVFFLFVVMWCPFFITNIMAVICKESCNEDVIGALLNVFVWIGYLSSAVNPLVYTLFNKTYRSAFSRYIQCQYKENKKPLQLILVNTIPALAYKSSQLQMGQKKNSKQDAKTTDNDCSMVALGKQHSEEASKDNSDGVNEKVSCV

By EC50 is commonly meant the midpoint of the concentration-response curve. Usually IC50 stands for the midpoint of a concentration-inhibition curve. Higher therefore signals lower potency. In general, Ki refers to a measure of affinity in units of concentration, obtained from inhibition or displacement. Read a high Ki as weaker binding. Take `CCC(C(=O)c1ccc2c(c1)OCO2)N1CCCC1` (stereo not drawn) [MDPBP, 3,4-methylenedioxy-α-pyrrolidinobutiophenone]: the EC50 at h5-HT2A receptor was > 20 µM. In addition, the figures for the IC50 in assay [1] and in assay [2] were 11 µM and 0.14 µM, respectively. This molecule also yielded a Ki at h5-HT1A receptor of 9 ± 1.5 µM.

Take `CCC(C(=O)c1ccc(F)cc1)N1CCCC1` (stereo not drawn) [4F-PBP, 4-fluoro-α-pyrrolidinobutiophenone]: on h5-HT2A receptor, the EC50 is > 20 µM. The results for the IC50 in assay [1] and in assay [2] were 177 µM and 0.61 µM, respectively. Besides, the Ki on h5-HT1A receptor was determined as 6 ± 3.4 µM.

For the molecule `CCCCC(C(=O)c1ccc(C)cc1)N1CCCC1` (stereo not drawn) [MPHP, 4-methyl-α-pyrrolidinohexanophenone], the EC50 at h5-HT2A receptor is > 20 µM. Also, the IC50 is 11 µM in assay [1] and 0.07 µM in assay [2]. Also, the Ki on h5-HT1A receptor amounted to 13 ± 1.9 µM.

With `CCCC(C(=O)c1ccccc1)N1CCCC1` (stereo not drawn) [α-PVP, α-pyrrolidinopentiophenone], the EC50 on h5-HT2A receptor was > 20 µM. The same molecule yielded an IC50 in assay [1] of 279 µM. In assay [2], half-maximal inhibition (IC50) required 0.02 µM and the “fold higher inhibition potency at the NET” value is given as 32 fold. At h5-HT1A receptor, this molecule yielded a Ki of 6.1 ± 0.7 µM.

Consider `CNC(C)Cc1ccc2c(c1)OCO2` (stereo not shown) [MDMA, 3,4-methylenedioxymethamphetamine, reference compound], for which the IC50 is 1.6 µM in assay [1] and 0.41 µM in assay [2].

For the molecule `CCCC(C(=O)c1ccc(C)cc1)N1CCCC1` (stereo not shown) [Pyrovalerone, pyrovalerone], the EC50 on h5-HT2A receptor was > 20 µM. The figures for the IC50 in assay [1] and in assay [2] were 13 µM and 0.06 µM, respectively. Also, affinity at h5-HT1A receptor was put at a Ki of 13 ± 1.4 µM.

As for `CCCCC(C(=O)c1ccc2c(c1)OCO2)N1CCCC1` (stereo not drawn) [MDPHP, 3,4-methylenedioxy-α-pyrrolidinohexanophenone], the EC50 at h5-HT2A receptor was > 20 µM. For the same molecule, the IC50 in assay [1] was 9 µM; in assay [2] it was 0.06 µM. Also, at h5-HT1A receptor, the affinity, expressed as Ki, was 13 ± 1.9 µM.

As for `Cc1ccc(C(=O)C(C)N2CCCC2)cc1` (stereo not drawn) [4-MePPP, 4-methyl-α-pyrrolidinopropiophenone], the EC50 at h5-HT2A receptor is > 10 µM. Besides, the half-inhibitory concentration (IC50) came out at 55 µM in assay [1] and 0.64 µM in assay [2]. The “fold lower potency at the NET” value in assay [2] (compared to pyrovalerone and MPHP) is listed as 11 fold. On h5-HT1A receptor, this molecule returned a Ki of 12 ± 2.2 µM.

With `CCCCC(C(=O)c1ccccc1)N1CCCC1` (stereo not drawn) [α-PHP, α-pyrrolidinohexanophenone], the EC50 on h5-HT2A receptor was > 20 µM. Besides, the values for the IC50 in assay [1] and in assay [2] were 245 µM and 0.06 µM, respectively. In addition, the “fold higher inhibition potency at the NET” value in assay [2] came out at 11 fold. On h5-HT1A receptor, this molecule gave a Ki of 11 ± 5.3 µM.

Take `CCCC(C(=O)c1ccc2c(c1)OCO2)N1CCCC1` (stereo not shown) [MDPV, 3,4-methylenedioxypyrovalerone]: the EC50 on h5-HT2A receptor was > 20 µM. The IC50 in assay [1] stood at 8.4 µM; in assay [2] it was 0.05 µM. Moreover, the Ki at h5-HT1A receptor came to 7.7 ± 0.6 µM.

As for `CCCCC(NCC)C(=O)c1ccccc1` (stereo not shown) [NEH, N-ethylamine-hexanophenone], the EC50 at h5-HT2A receptor was > 20 µM. In addition, the half-maximal inhibitory concentration (IC50) in assay [1] amounted to 47 µM; in assay [2], 0.17 µM. For the same molecule, the Ki at h5-HT1A receptor is > 17 µM.

In the case of `CC(C(=O)c1ccccc1)N1CCCC1` (stereo not drawn) [α-PPP, α-pyrrolidinopropiophenone], at h5-HT2A receptor, the concentration for a half-maximal effect (EC50) was > 20 µM. The IC50 in assay [1] is > 1000 µM; in assay [2], 0.64 µM. Affinity at h5-HT1A receptor was put at a Ki of 0.7 ± 0.3 µM.

Take `COc1ccc(C(=O)C(C)N2CCCC2)cc1` (stereo not drawn) [MOPPP, 4-methoxy-α-pyrrolidinopropiophenone]: the EC50 at h5-HT2A receptor is > 20 µM. Besides, the IC50 stood at 94 µM in assay [1] and 8.7 µM in assay [2]. Further, the “NET IC50 value fold higher” value in assay [2] (than observed for α-PPP) is listed as “about 14 fold”. The Ki on h5-HT1A receptor was > 17 µM.

With `CC(C(=O)c1ccc2c(c1)OCO2)N1CCCC1` (stereo not drawn) [MDPPP, 3,4-methylenedioxy-α-pyrrolidinopropiophenone], the EC50 on h5-HT2A receptor is > 20 µM. The IC50 was 43 µM in assay [1] and 1.7 µM in assay [2]. The Ki on h5-HT1A receptor is 1.9 ± 0.8 µM.
